Experimental data: article PMC9951879, “Synthesis of New Shogaol Analogues as NRF2 Activators and Evaluation of Their Anti-Inflammatory Activity, Modes of Action and Metabolic Stability” (Antioxidants, 2023)
Read-outs that look alike come from different tables or passages of the source.

How the values were obtained:
[1] = test system: NRF2; test: qPCR gene expression in Hepa1c1c-7 cells: NRF2; type: cell-based, mouse; conditions: 1 μM, 48 h, Hepa-1c1c7 cells
Protocol: (§1) Hepa1c1c-7 cells were treated with STCs (1 μM) for 48 h, and the total RNA was isolated using QIAzol®lysis reagent (Qiagen, Germany). Next, cDNA was synthesised using the ReverTra Ace® qPCR RT Master Mix Kit (Toyobo Research Reagents, Osaka, Japan). Quantitative PCR was performed using THUNDERBIRD^TM Next SYBR® qPCR Mix (Toyobo Research Reagents, Osaka, Japan) in CFX96 Touch Real-Time PCR Detection System (Bio-Rad Laboratories, San Jose, CA, USA). The genes tested and the respective primers (purchased from Integrated DNA Technologies, Coralville, IA, USA) used in the study are shown in Table 1. β-actin was used as a reference gene for the normalisation of target gene expression. The 2^−ΔΔCt method was used to measure the relative expression of target genes.

[2] = test system: NQO1; test: qPCR gene expression in Hepa1c1c-7 cells: NQO1; type: cell-based, mouse; conditions: 1 μM, 48 h, Hepa-1c1c7 cells
Protocol: as §1

[3] = test system: GCLC; test: qPCR gene expression in Hepa1c1c-7 cells: GCLC; type: cell-based, mouse; conditions: 1 μM, 48 h, Hepa-1c1c7 cells
Protocol: as §1

[4] = test system: GCLM; test: qPCR gene expression in Hepa1c1c-7 cells: GCLM; type: cell-based, mouse; conditions: 1 μM, 48 h, Hepa-1c1c7 cells
Protocol: as §1

[5] = test system: PRDX1; test: qPCR gene expression in Hepa1c1c-7 cells: PRDX1; type: cell-based, mouse; conditions: 1 μM, 48 h, Hepa-1c1c7 cells
Protocol: as §1

[6] = test system: GSTA4; test: qPCR gene expression in Hepa1c1c-7 cells: GSTA4; type: cell-based, mouse; conditions: 1 μM, 48 h, Hepa-1c1c7 cells
Protocol: as §1

[7] = test system: G6PDX; test: qPCR gene expression in Hepa1c1c-7 cells: G6PDX; type: cell-based, mouse; conditions: 1 μM, 48 h, Hepa-1c1c7 cells
Protocol: as §1

[8] = test system: nitric oxide (NO); test: Nitric oxide (Griess) in LPSEc-stimulated BV-2 cells; type: cell-based, mouse; conditions: LPSEc 200 ng/mL; for NO production: 1 μM; for inhibition at 1 µM: Mus musculus, BV-2, 1 μM, read-out: percentage of NO inhibition
Protocol: (§2) The anti-inflammatory activity of the STCs was determined in E. coli lipopolysaccharide (LPSEc; Sigma Aldrich, USA)-induced inflammation in NRF2-proficient and NRF2 siRNA-transfected mouse microglial (BV-2) cells. The NRF2 was silenced in BV-2 cells using NRF2 siRNA (Santa Cruz Biotechnology, Dallas, TX, USA) in Opti-MEM transfection medium (Thermo Fisher Scientific, USA) using Lipofectamine^TM LTX reagent with PLUS^TM reagent (Thermo Fisher Scientific, USA) following the manufacturer’s protocol and reported method. The cells (5 × 10^5 cells/well) were allowed to form a monolayer by incubating them for 24 h and then adding LPSEc (200 ng/mL) for 4 h. The STCs (1 µM) were then added and incubated for another 20 h. The nitric oxide (NO) level in cell supernatant was determined using the Griess reagent kit (Thermo Fisher Scientific, USA). The levels of proinflammatory cytokines (IL-1β, IL-6, IFN-γ, and TNF-α) in cell supernatant solutions were determined using commercially available ELISA kits (Abcam, Cambridge, UK). The cell pellets were lysed using Cell Lysis buffer (Thermo Fisher Scientific, Waltham, MA, USA) following the manufacturer’s instructions. The supernatant solution in the wells was replaced with PBS, and cells were detached by scraping, washed with PBS, and centrifuged to collect the cell pellet. The cell pellet was lysed on ice in a cell lysis buffer for half an hour, vortexing at regular intervals. The cell lysate was centrifuged at 15,000 rpm for 15 min at 4 °C. The clear lysate was stored at −80 °C until further use. The protein concentration was determined using Bradford’s assay kit (Thermo Fisher Scientific, USA) following the manufacturer’s instructions. The expression of COX-2, NF-κB p65, NRF2, and HO-1 in cell lysates was determined using commercially available ELISA kits (Abcam, St, Louis, Missouri, USA) following the manufacturer’s protocol. In addition, the thiol content was determined using a thiol quantification assay kit (Abcam, USA).

[9] = target: T1, GSK-3β (Homo sapiens, UniProt P49841); test: GSK-3β kinase ADP-Glo assay; type: biochemical; conditions: ATP 25 μM, read-out: IC50, GSK-3β enzyme activity
T1 construct: purchased Promega
Protocol: The effect of STCs on GSK-3β activity was determined using GSK-3β kinase enzyme (Promega, WI, USA) and ADP-Glo^TM kinase assay (Promega, USA) following the manufacturer’s protocol and reported method. The STCs were dissolved in the kinase buffer to prepare different concentrations (10, 1, 0.1, 0.01, and 0.001 μM). One microliter of the test compounds was added to each well (384 well plate), followed by the addition of 2 μL of GSK-3β kinase (1 ng), 2 μL of the GSK-3β substrate (0.4 μg), and 2 μL of the ATP (25 μM), and incubated for 60 min. Then, 5 μL of ADP-Glo^TM reagent was added and incubated further for 40 min. Then 10 μL of kinase detection reagent was added and incubated for 30 min. The luminescence was recorded using a SpectraMax®L microplate reader (Molecular Devices, San Jose, CA, USA). The IC50 (concentration of the test compound required to produce half-maximal […]) from dose-response curves using non-linear regression analysis using GraphPad Prism (9.5.0; San Diego, CA, USA) software.

[10] = test system: free thiol content in NRF2-proficient BV-2 cells; test: Thiol quantification assay in BV-2 cells; type: cell-based, mouse
Protocol: as §2, with “The STCs (1 µM) were then added and incubated for another 20 h.” left out, “The cell pellets were lysed using Cell Lysis buffer (Thermo Fisher Scientific, Waltham, MA, USA) following the manufacturer’s instructions. The supernatant solution in the wells was replaced with PBS, and cells were detached by scraping, washed with PBS, and centrifuged to collect the cell pellet. The cell pellet was lysed on ice in a cell lysis buffer for half an hour, vortexing at regular intervals. The cell lysate was centrifuged at 15,000 rpm for 15 min at 4 °C. The clear lysate was stored at −80 °C until further use.” left out

[11] = Liver microsomal stability, human; type: in vitro ADME; conditions: for Clint / half-life at 1 μM: human liver microsomes, 1 μM (verapamil 0.5 μM)
Protocol: The liver microsomes of humans, rats, and mice were purchased from Merck (human, #M0567; rat, #M9066; mouse, #M9441). The metabolic stability of 6-shogaol and STCs (1 μM effective concentration; 5 μL) was mixed with liver microsomes (0.5 mg mL^−1; 445 μL) in a microcentrifuge tube. Verapamil (0.5 μM) was used as the positive control. The microsome and compound mixture were shaken on a plate shaker for 5 min to ensure homogeneity. NADPH (1 mM; 50 μL) was added to the mixture to start the metabolic reaction. The reaction mixture was incubated at 37 °C for 0, 3, 6, 15, 30, 45, and 60 min. The mixture (20 μL) was sampled and quenched with 180 μL of acetonitrile with internal standard (Donepezil 50 ng/mL) to terminate the metabolic reaction at each time point. Ultrapure water (80 μL) was added, and contents in the microcentrifuge tubes were centrifuged at 3800 rpm at 4 °C for 10 min. […] Each set of experiments was repeated three times in human, rat, and mouse liver microsomes. The concentration of the compounds versus time was plotted to determine the elimination rate constant (Kel). The intrinsic clearance (Clint) and half-life (t1/2) were calculated using the following equations.

T1 sequence (P49841 whole entry): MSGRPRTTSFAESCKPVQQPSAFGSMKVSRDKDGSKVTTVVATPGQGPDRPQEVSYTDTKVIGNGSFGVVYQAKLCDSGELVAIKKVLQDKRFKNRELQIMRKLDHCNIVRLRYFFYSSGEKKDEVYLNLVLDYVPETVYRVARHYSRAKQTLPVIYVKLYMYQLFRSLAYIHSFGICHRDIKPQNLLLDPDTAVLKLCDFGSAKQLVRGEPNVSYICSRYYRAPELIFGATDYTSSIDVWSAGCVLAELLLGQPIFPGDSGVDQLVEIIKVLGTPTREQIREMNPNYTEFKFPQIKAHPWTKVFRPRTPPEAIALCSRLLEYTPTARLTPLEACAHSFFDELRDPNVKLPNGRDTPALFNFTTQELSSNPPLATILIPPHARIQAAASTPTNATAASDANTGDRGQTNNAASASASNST

Compound | NRF2 gene expression foldchange (compared to control) [1] | NQO1 gene expression foldchange (compared to control) [2] | GCLC gene expression foldchange (compared to control) [3] | GCLM gene expression foldchange (compared to control) [4] | PRDX1 gene expression foldchange (compared to control) [5] | GSTA4 gene expression foldchange (compared to control) [6] | G6PDX gene expression foldchange (compared to control) [7] | NO production ([8]; NRF2-proficient BV-2 cells) [µM] | NO production ([8]; NRF2-silenced BV-2 cells) [µM] | inhibition at 1 µM ([8]; NRF2-proficient BV-2 cells) [%] | inhibition at 1 µM ([8]; NRF2-silenced BV-2 cells) [%] | IC50 [9] [µM] | free thiol content ([10]; NRF2-proficient BV-2 cells, untreated cells = 100%) [%] | Clint [11] [mL/min/g liver] | half-life at 1 μM [11] [min] | reactivity with thiols lower than that of 6-shogaol ([10]; versus 6-shogaol) | half-life in liver microsomes, times longer than that of 6-shogaol ([11]; liver microsomes, species not stated, versus 6-shogaol)
CCCCC/C=C/C(=O)CCc1ccc(O)c(OC)c1 [6-shogaol, reference compound] | 1.26 ± 0.05 | 1.20 ± 0.06 | 1.20 ± 0.05 | 2.28 ± 0.10 | 1.37 ± 0.07 | 1.53 ± 0.02 | 2.27 ± 0.03 | 6.32 ± 0.03 | 8.56 ± 0.36 | 40 | 24.7 | 0.42 ± 0.13 | 35.03 ± 3.70 | 7.56 ± 1.24 | 9.63 |  | 
COc1cc(CCC(=O)/C=C/c2cc(-c3ccccc3)cs2)ccc1O [STC5, (E)-5-(4-Hydroxy-3-methoxyphenyl)-1-(4-phenylthiophen-2-yl)pent-1-en-3-one] | 3.21 ± 0.08 | 2.94 ± 0.01 | 2.31 ± 0.05 | 3.91 ± 0.09 | 3.04 ± 0.09 | 2.52 ± 0.03 | 3.83 ± 0.02 | 2.58 ± 0.04 |  | 75.5 | 64.8 | 0.05 ± 0.001 |  | 5.09 ± 0.98 | 14.3 | about 70% | about 1.5 times
COc1cc(CCC(=O)/C=C/c2ccc([N+](=O)[O-])s2)ccc1O [STC8, (E)-5-(4-Hydroxy-3-methoxyphenyl)-1-(5-nitrothiophen-2-yl)pent-1-en-3-one] |  |  |  |  |  |  |  | 6.38 ± 0.04 | 8.86 ± 0.38 |  |  | 0.87 ± 0.09 |  | 6.95 ± 1.52 | 10.5 |  | 
